Source: US12599582B2, “Pyrrole compounds” (ALIGOS THERAPEUTICS, INC., priority 2019, dated 2026)
pEC50: −log10 of the molar value.

System: HBV
Assay: HBV-DNA Antiviral Assay Using HepG2.2.15 Cells (extracellular HBV DNA by qPCR)
Type: cell-based, hepatitis B virus (HBV)
Conditions: Hepatitis B virus; HBV DNA inhibition, HepG2.2.15 cells, extracellular HBV DNA by qPCR; read-out: EC50
Procedure, shortened: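 HepG2.2.15 cells were treated on day 1 with 8 concentrations (4-fold dilutions, duplicate; 0.5% DMSO), with compound-containing medium refreshed on day 4, at 37 °C. On day 7, supernatant HBV DNA was measured by qPCR against a plasmid standard curve, with inhibition normalised between DMSO and ETV controls. EC50/EC90 and CC50 (CellTiter-Glo ATP) came from variable-slope fits.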

| Structure (SMILES) | pEC50 |
| --- | --- |
| C#CC1(NC(=O)C(=O)c2c(C)c(C(=O)Nc3ccc(F)c(C(F)F)c3)n(C)c2C)CC(F)(F)C1 [Compound 82, N-[3-(difluoromethyl)-4-fluoro-phenyl]-4-[2-[(1-ethynyl-3,3-difluoro-cyclobutyl)amino]-2-oxo-acetyl]-1,3,5-trimethyl-pyrrole-2-carboxamide] | 8.00 to 9.00 |
| C#CC1(NC(=O)C(=O)c2c(C)c(C(=O)Nc3ccnc(Br)c3F)n(C)c2C)COC1 [Compound 83, N-(2-bromo-3-fluoro-4-pyridyl)-4-[2-[(3-ethynyloxetan-3-yl)amino]-2-oxo-acetyl]-1,3,5-trimethyl-pyrrole-2-carboxamide] | 8.00 to 9.00 |
| C#CC1(NC(=O)C(=O)c2c(C)c(C(=O)Nc3ccnc(Br)c3F)n(C)c2C)CC(F)(F)C1 [Compound 84, N-(2-bromo-3-fluoro-4-pyridyl)-4-[2-[(1-ethynyl-3,3-difluoro-cyclobutyl)amino]-2-oxo-acetyl]-1,3,5-trimethyl-pyrrole-2-carboxamide] | 8.00 to 9.00 |
| Cc1c(C(=O)C(=O)NC(C)(C)c2nccs2)c(C)n(C)c1C(=O)Nc1ccc(F)c(C#N)c1 [Compound 85, N-(3-cyano-4-fluoro-phenyl)-1,3,5-trimethyl-4-[2-[(1-methyl-1-thiazol-2-yl-ethyl)amino]-2-oxo-acetyl]pyrrole-2-carboxamide] | 8.00 to 9.00 |
| C#CC1(NC(=O)C(=O)c2c(C)c(C(=O)Nc3ccc(F)c(F)c3)n(C)c2C)COC1 [Compound 86, N-(3,4-difluorophenyl)-4-[2-[(3-ethynyloxetan-3-yl)amino]-2-oxo-acetyl]-1,3,5-trimethyl-pyrrole-2-carboxamide] | 8.00 to 9.00 |
| C#CC1(NC(=O)C(=O)c2c(C)c(C(=O)Nc3ccc(F)c(F)c3)n(C)c2C)CCCCC1 [Compound 87, N-(3,4-difluorophenyl)-4-[2-[(1-ethynylcyclohexyl)amino]-2-oxo-acetyl]-1,3,5-trimethyl-pyrrole-2-carboxamide] | 8.00 to 9.00 |
| C#CC(C)(CC)NC(=O)C(=O)c1c(C)c(C(=O)Nc2ccc(F)c(F)c2)n(C)c1C (stereo not shown) [Compound 88, N-(3,4-difluorophenyl)-4-[2-[(1-ethyl-1-methyl-prop-2-ynyl)amino]-2-oxo-acetyl]-1,3,5-trimethyl-pyrrole-2-carboxamide] | 8.00 to 9.00 |
| C#CC(CC)(CC)NC(=O)C(=O)c1c(C)c(C(=O)Nc2ccc(F)c(F)c2)n(C)c1C [Compound 89, 4-[2-(1,1-diethylprop-2-ynylamino)-2-oxo-acetyl]-N-(3,4-difluorophenyl)-1,3,5-trimethyl-pyrrole-2-carboxamide] | 8.00 to 9.00 |
| C#CC(C)(C)NC(=O)C(=O)c1c(C)c(C(=O)Nc2ccc(F)c(F)c2)n(C)c1C [Compound 90, N-(3,4-difluorophenyl)-4-[2-(1,1-dimethylprop-2-ynylamino)-2-oxo-acetyl]-1,3,5-trimethyl-pyrrole-2-carboxamide] | 8.00 to 9.00 |
| Cc1c(C(=O)C(=O)NC(C)(C)c2ccccn2)c(C)n(C)c1C(=O)Nc1ccc(F)c(C#N)c1 [Compound 91, N-(3-cyano-4-fluoro-phenyl)-1,3,5-trimethyl-4-[2-[[1-methyl-1-(2-pyridyl)ethyl]amino]-2-oxo-acetyl]pyrrole-2-carboxamide] | 8.00 to 9.00 |
| Cc1c(C(=O)C(=O)NC(C)(C)c2cccnc2)c(C)n(C)c1C(=O)Nc1ccc(F)c(C#N)c1 [Compound 92, N-(3-cyano-4-fluoro-phenyl)-1,3,5-trimethyl-4-[2-[[1-methyl-1-(3-pyridyl)ethyl]amino]-2-oxo-acetyl]pyrrole-2-carboxamide] | 8.00 to 9.00 |
| Cc1c(C(=O)C(=O)NC(C)(C)c2ccncc2)c(C)n(C)c1C(=O)Nc1ccc(F)c(C#N)c1 [Compound 93, N-(3-cyano-4-fluoro-phenyl)-1,3,5-trimethyl-4-[2-[[1-methyl-1-(4-pyridyl)ethyl]amino]-2-oxo-acetyl]pyrrole-2-carboxamide] | 8.00 to 9.00 |
| Cc1c(C(=O)C(=O)NC2(C#C[C@@H](C)O)COC2)c(C)n(C)c1C(=O)Nc1ccc(F)c(C#N)c1 [Compound 94a, N-(3-cyano-4-fluoro-phenyl)-1,3,5-trimethyl-4-[2-oxo-2-[[3-[(3R)-3-hydroxybut-1-ynyl]oxetan-3-yl]amino]acetyl]pyrrole-2-carboxamide] | 7.00 to 8.00 |
| Cc1c(C(=O)C(=O)NC2(C#C[C@H](C)O)COC2)c(C)n(C)c1C(=O)Nc1ccc(F)c(C#N)c1 [Compound 94b, N-(3-cyano-4-fluoro-phenyl)-1,3,5-trimethyl-4-[2-oxo-2-[[3-[(3S)-3-hydroxybut-1-ynyl]oxetan-3-yl]amino]acetyl]pyrrole-2-carboxamide] | 8.00 to 9.00 |
| C=C[C@@](C)(NC(=O)C(=O)c1c(C)c(C(=O)Nc2ccc(F)c(C#N)c2)n(C)c1C)C(F)(F)F [Compound 95a, N-(3-cyano-4-fluoro-phenyl)-1,3,5-trimethyl-4-[2-oxo-2-[[(1R)-1-methyl-1-(trifluoromethyl)allyl]amino]acetyl]pyrrole-2-carboxamide] | 8.00 to 9.00 |
| C=C[C@](C)(NC(=O)C(=O)c1c(C)c(C(=O)Nc2ccc(F)c(C#N)c2)n(C)c1C)C(F)(F)F [Compound 95b, N-(3-cyano-4-fluoro-phenyl)-1,3,5-trimethyl-4-[2-oxo-2-[[(1S)-1-methyl-1-(trifluoromethyl)allyl]amino]acetyl]pyrrole-2-carboxamide] | 8.00 to 9.00 |
| Cc1c(C(=O)C(=O)NC(C)(C)c2cn[nH]c2)c(C)n(C)c1C(=O)Nc1ccc(F)c(C#N)c1 [Compound 96, N-(3-cyano-4-fluoro-phenyl)-1,3,5-trimethyl-4-[2-[[1-methyl-1-(1H-pyrazol-4-yl)ethyl]amino]-2-oxo-acetyl]pyrrole-2-carboxamide] | 8.00 to 9.00 |
| Cc1c(C(=O)C(=O)NC(C)(C)c2cn[nH]c2)c(C)n(C)c1C(=O)Nc1ccc(F)c(C(F)(F)F)c1 [Compound 97, N-[4-fluoro-3-(trifluoromethyl)phenyl]-1,3,5-trimethyl-4-[2-[[1-methyl-1-(1H-pyrazol-4-yl)ethyl]amino]-2-oxo-acetyl]pyrrole-2-carboxamide] | > 9.00 |
| Cc1c(C(=O)C(=O)NC(C)(C)c2cnn(C)c2)c(C)n(C)c1C(=O)Nc1ccc(F)c(C(F)(F)F)c1 [Compound 98, N-[4-fluoro-3-(trifluoromethyl)phenyl]-1,3,5-trimethyl-4-[2-[[1-methyl-1-(1-methylpyrazol-4-yl)ethyl]amino]-2-oxo-acetyl]pyrrole-2-carboxamide] | > 9.00 |
| Cc1c(C(=O)C(=O)NC(C)(C)c2ccccn2)c(C)n(C)c1C(=O)Nc1ccc(F)c(C(F)(F)F)c1 [Compound 99, N-[4-fluoro-3-(trifluoromethyl)phenyl]-1,3,5-trimethyl-4-[2-[[1-methyl-1-(2-pyridyl)ethyl]amino]-2-oxo-acetyl]pyrrole-2-carboxamide] | 8.00 to 9.00 |
| Cc1c(C(=O)C(=O)NC(C)(C)c2cccnc2)c(C)n(C)c1C(=O)Nc1ccc(F)c(C(F)(F)F)c1 [Compound 100, N-[4-fluoro-3-(trifluoromethyl)phenyl]-1,3,5-trimethyl-4-[2-[[1-methyl-1-(3-pyridyl)ethyl]amino]-2-oxo-acetyl]pyrrole-2-carboxamide] | > 9.00 |
| Cc1c(C(=O)C(=O)NC(C)(C)c2ccncc2)c(C)n(C)c1C(=O)Nc1ccc(F)c(C(F)(F)F)c1 [Compound 101, N-[4-fluoro-3-(trifluoromethyl)phenyl]-1,3,5-trimethyl-4-[2-[[1-methyl-1-(4-pyridyl)ethyl]amino]-2-oxo-acetyl]pyrrole-2-carboxamide] | 8.00 to 9.00 |
